Where a name gives a salt, the structure may show the parent alone.

The nature of series [1]: Tissue analysis of drug content under FOCALSEAL-S gels on porcine heart. In kind it is in vivo. Conditions: lung tissue adjacent to gel-treated sites; pig, seven days.
Series [2] can be described thus: Amiodarone concentration in dog right atrium under FOCALSEAL-S hydrogels (Example 9). In kind it is in vivo. The note with it: right atrial appendage, right ventricle, left atrial appendage, left atrial free wall, distal lung.
The conditions of series [3]: FOCALSEAL-L; FIG. 2A / FIG. 2B.

On to `CCCCc1oc2ccccc2c1C(=O)c1cc(I)c(OCCN(CC)CC)c(I)c1` [amiodarone, Amiodarone hydrochloride], for which the concentration at 7 days in series [1] is ≤ 17000 ng/g. Besides, the “other tissue harvested showing a detectable level of amiodarone” value in series [2] is given as “None”. Moreover, the “change in pH and modulus as concentration is increased” value in series [3] is “decrease in pH and modulus”.

The values are drawn from US7022343B2, “Controlled release of anti-arrhythmic agents” (Genzyme Corporation, priority 2000, dated 2006).
